One series deals with male ddY mice. Briefly: Forced swimming method (measurement of immobility time). The format is in vivo. To be noted: orally administered, 10 mg/kg, one hour before the test; versus solvent group (Steel-test). The procedure:
Ten male ddY mice (21 to 26 g in body weight, Japan SLC) per group were used as test animals. During the preliminary feeding period, the animals were bred to be allowed to freely have feed (CRF-1; Oriental Yeast Co., Ltd, Tokyo) and water (tap water) in an animal room at a room temperature for 23±1° C. and a humidity of 55±5%.
Animals showing abnormal reactions in terms of spontaneous activity, myotonia, eyesight and the like were previously excluded. Each test compound was suspended in a 0.3% Tween 80 solution and orally administered one hour before the test. In the negative control group, 10 mL/kg of a 0.3% Tween 80 solution alone was orally administered. The immobility time was measured according to the Porsolt method [Arch. Int. Pharmacodyn., vol. 229, pp. 327-336 (1977)]. Namely, a cylindrical transparent acrylic water tank (10 cm in diameter and 25 cm in height) was filled with water at a temperature between 23±1° C. to a height of 9 cm, and the mice were forced to swim for 6 minutes. When the mice are put into water, they immediately start to swim trying to escape from the tank, but the motion gradually decreases 1 to 2 minutes thereafter. […] In order to reduce the effects of daily rhythm, the test was carried out using 5 of the 10 animals per group in the morning, and the remaining 5 animals in the afternoon. The immobility time was measured by observing 2 animals at the same time without telling the observers distinctions about the control group administered with the solvent alone and doses of the test compounds. Statistical analysis of the results was carried out by a multiple comparison Steel-test between the solvent-administered group and the test compound-administered group.

Series [1] has as its system CGS 21680-induced catalepsy. Briefly: Activity on CGS 21680-induced catalepsy. Type of series: in vivo, mice. To be noted: 10 mg/kg orally; for Number of animals showing remission: cases with catalepsy score of 4 points or less in 10 cases; for Remission ratio (%) / inhibition in vivo at 10 mg/kg: from total score of test group and control group; for Total score: total catalepsy score of 10 mice (maximum 50 points; 40 points or less = positive), one hour after administration; for inhibition in vivo at 10 mg/kg: Mus musculus, po, read-out: Remission ratio (%). The gist of the method: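 Male ddY mice, 5 weeks old, ten per group, were dosed orally with compound at 10 mg/kg in 0.3% Tween 80 water, 30 min before CGS 21680 (10 μg/20 μL) was injected into the cerebral ventricle. Catalepsy was scored 1 h after compound dosing by placing forelimbs or hindlimbs on a 4.5 cm stand.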

The next series addresses T1, adenosine A2A receptor (Rattus norvegicus, UniProt P30543).
T1 construct: from tissue; host or cells: rat corpus striatum membrane preparation
As to the kind of experiment: Adenosine A2A receptor binding test (3H-CGS 21680 binding). To be noted: for inhibition at 0.1 µM: read-out: A2A Receptor inhibition rate (%) at 10^−7 mol/L. The protocol: The test was carried out according to the method of Bruns et al. [Molecular Pharmacology, vol. 29, p.
Rat corpus striatum was suspended in an ice-cold 50 mmol/L tris(hydroxymethyl)aminomethane hydrochloride (referred to as “Tris HCl” hereinafter) buffer (pH 7.7) using a Polytron homogenizer (produced by Kinematica Co.). The suspension was centrifuged (50,000×g, 10 minutes), and the resulting precipitate was again suspended in the same amount of a 50 mmol/L Tris HCl buffer, followed by centrifugation under the same conditions. The resulting finalprecipitate was again suspended in a 50 mmol/L-Tris HCl buffer [containing 10 mmol/L of magnesium chloride and 0.02 unit/mg tissue of adenosine deaminase (produced by Sigma Co.)] so that the tissue concentration was 5 mg (wet weight)/mL.
The radioactivity on the filter was determined with a liquid scintillation counter (produced by Packard Instrument Co.).
In the equation, X represents Amount of binding in the presence of a medicament, Y represents Amount of nonspecific binding, and Z represents Amount of total binding.

In the next series the test system is male SD rats. As to the kind of experiment: Learned helplessness (LH) model. Type of series: in vivo. The protocol: As test animals, 10 to 15 male SD rats (220 to 320 g in body weight, 7 week age, Charles River Japan, Inc., Atsugi) per group were used. During the preliminary feeding period, the animals were bred to be allowed to freely have feed (CRF-1; Oriental Yeast Co., Ltd, Tokyo) and water (tap water) in an animal room at a room temperature of 22 to 24° C. and a humidity of 50 to 60%. Each test compound was orally administered in a dose of 2 mg/kg 1 hour before RF1 (refer to the contents described below) on the second day of the test.
A shuttle box apparatus (TK-401S; produced by UNICOM, Chiba) was used as a learning experimental apparatus. On the first day, the shuttle box was divided into two rooms by setting a partition at its center, and one rat was put in each of the rooms. […] Although each rat was put in the shuttle box for 50 minutes, the charging time of inescapable shock (IES) was set to 25 minutes by computer control using a random duration time (10 to 90 seconds) and random on-off and off-on (10 to 90 seconds).
On the second day, a shuttle box test was carried out by the method of Maier [J. Comp. Physiol. Psychol., vol. 85, pp. 581-592 (1973)] and the method of Geoffroy and Christensen [Drug Dev. Res., vol. 29, pp. 48-55 (1993)] which were slightly modified. The partition at the center of the shuttle box was removed, and the box was divided into two rooms by a hurdle of 2 cm in height instead of the partition. In the shuttle box test, FRI (an electric shock of 0.6 mA was applied to the rat for 5 seconds unless the rat moved to the other room within 5 seconds after the start of buzzer sounds, and when the rat moved to the other room within 5 seconds after the start of buzzer sounds, the floor shock could be avoided, this operation being carried as one trial and repeated 15 times with an interval of 10 seconds between trials.) was carried out, continuously followed by FR2 (an electric shock of 0.6 mA was applied to the rat for 10 seconds, and then an electric shock of 0.6 mA was applied at intervals of 0.5 second for 10 seconds, this operation being carried out as one trial and repeated 15 times with an interval of 15 seconds between trials). Escape reaction was determined by the escape response calculated by the equation below on the assumption that cases showing two escape latency times of less than 10 seconds in FR2 were regarded as successful escape. Escape response (%)=(Number of trials of successful escape/15)×100
Furthermore, migration (intertrial response %) in the box other than the escape reaction observed during a period between trials (resting time) was used as an index of psychomotor stimulant action, the intertrial response being calculated by the following equation. […]

[2] abbreviates: test compound 10^−7 mol/L, 3H-CGS 21680 binding, rat corpus striatum.

Like-named read-outs stand apart in the source and are kept apart here.

T1 sequence (P30543 whole entry): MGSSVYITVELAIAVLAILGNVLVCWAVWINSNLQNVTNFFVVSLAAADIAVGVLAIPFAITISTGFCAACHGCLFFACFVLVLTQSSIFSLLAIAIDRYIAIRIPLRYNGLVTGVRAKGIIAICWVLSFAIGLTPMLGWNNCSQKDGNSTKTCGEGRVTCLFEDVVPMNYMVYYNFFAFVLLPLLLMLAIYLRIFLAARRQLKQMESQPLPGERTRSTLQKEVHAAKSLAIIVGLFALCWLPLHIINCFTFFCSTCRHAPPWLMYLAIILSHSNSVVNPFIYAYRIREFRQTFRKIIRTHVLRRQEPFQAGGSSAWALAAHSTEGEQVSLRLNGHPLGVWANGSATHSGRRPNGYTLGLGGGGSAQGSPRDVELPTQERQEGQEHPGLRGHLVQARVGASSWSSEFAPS

Turning to “5-Amino-2-(2-furyl)[1,2,4]triazolo[1,5-c]pyrimidine-7-carboxylic acid (1,2,3,4-tetrahydroisoquinolyl)amide [Compound 94]”, the immobility time entry in the series on male ddY mice is listed as “significant effect of decreasing the immobility time”. In series [1], the “Number of animals showing remission” value is recorded as 10, the “Remission ratio (%)” value turned out to be 90% and the Total score is 5. Besides, the “A2A Receptor inhibition rate (%) at 10^−7 mol/L” value (“A2A Receptor inhibition rate (%)” below) at adenosine A2A receptor (setting [2]) was determined as 95%.
As for `Nc1nc(-c2ccccc2)cc2nc(-c3ccco3)nn12` [Compound 1, 5-Amino-2-(2-furyl)-7-phenyl[1,2,4]triazolo[1,5-c]pyrimidine], the melting point lay within 218.5 to 219 °C. Besides, on adenosine A2A receptor (setting [2]), the inhibition at 0.1 µM was 65%.
For `Nc1nc(-c2ccc(CNCCc3ccccn3)cc2)cc2nc(-c3ccco3)nn12` [Compound 11, 5-Amino-2-(2-furyl)-7-{4-[2-(2-pyridyl)ethylaminomethyl]-phenyl}[1,2,4]triazolo[1,5-c]pyrimidine] the same measures were 159.8 to 160.5 °C and 53%.
For `CC(=O)c1cc2nc(-c3ccco3)nn2c(N)n1` [Compound 38, 7-Acetyl-5-amino-2-(2-furyl)[1,2,4]triazolo[1,5-c]pyrimidine] the same measures were 221.2 to 221.5 °C and 84%.
For `Nc1nc(C(=O)c2ccccc2)cc2nc(-c3ccco3)nn12` [Compound 39, 5-Amino-7-benzoyl 2-(2-furyl)[1,2,4]triazolo[1,5-c]-pyrimidine] the same measures were 229.2 to 229.7 °C and 66%.
On to `Nc1nc(C=O)cc2nc(-c3ccco3)nn12` [Compound 41, 5-Amino-7-formyl-2-(2-furyl)[1,2,4]triazolo[1,5-c]pyrimidine], for which the melting point was 270 °C (dec.). Moreover, the inhibition at 0.1 µM on adenosine A2A receptor (setting [2]) came out at 54%.
Compound `Nc1nc(-c2cccs2)cc2nc(-c3ccco3)nn12` [Compound 51, 5-Amino-2-(2-furyl)-7-(2-thienyl)[1,2,4]triazolo[1,5-c]-pyrimidine] gave a melting point of 232.2 to 232.3 °C. In addition, the inhibition at 0.1 µM on adenosine A2A receptor is 68%.
For `CCCCc1cc2nc(-c3ccco3)nn2c(N)n1` [Compound 64, 5-Amino-7-butyl-2-(2-furyl)[1,2,4]triazolo[1,5-c]pyrimidine], the melting point is 155 to 155.3 °C. Further, the inhibition at 0.1 µM at adenosine A2A receptor (setting [2]) came out at 81%.
The matching figures for `Nc1nc(CCc2ccccc2)cc2nc(-c3ccco3)nn12` [Compound 66, 5-Amino-2-(2-furyl)-7-(2-phenylethyl)[1,2,4]triazolo[1,5-c]-pyrimidine]: 205 to 205.1 °C and 82%.
The matching figures for `Nc1nc(CCO)cc2nc(-c3ccco3)nn12` [Compound 67, 5-Amino-2-(2-furyl)-7-(2-hydroxyethyl)[1,2,4]triazolo[1,5-c]pyrimidine]: 207.2 to 207.8 °C and 91%.
With `Nc1nc(C(=O)NCc2cccnc2)cc2nc(-c3ccco3)nn12` [Compound 83, 5-Amino-2-(2-furyl) [1,2,4]triazolo[1,5-c]pyrimidine-7-carboxylic acid (3-pyridylmethyl)amide], in the series with male ddY mice, the immobility time result is given as “significant effect of decreasing the immobility time”. In series [1], the inhibition in vivo at 10 mg/kg is 96% and the Total score is listed as 2. In the series with male SD rats (IES-loaded rats, 2 mg/kg orally 1 hour before FR1), the escape response entry was “significantly recover a reduced escape response”. Besides, the “intertrial responses (index of psychomotor stimulant action)” value with male SD rats (versus electric shock loaded control group, 2 mg/kg orally) is “no difference”.
Take `CC(C)NC(=O)c1cc2nc(-c3ccco3)nn2c(N)n1` [Compound 89, 5-Amino-2-(2-furyl) [1,2,4]triazolo[1,5-c]pyrimidine-7-carboxylic acid isopropylamide]: the immobility time entry in the series on male ddY mice is “significant effect of decreasing the immobility time”. Also, in series [1], the inhibition in vivo at 10 mg/kg came out at 84% and the Total score is recorded as 8. Further, the inhibition at 0.1 µM at adenosine A2A receptor (setting [2]) came out at 89%.
In the case of `Nc1nc(C(=O)N2CCC3CCCCC3C2)cc2nc(-c3ccco3)nn12` (stereo not drawn) [Compound 151, 5-Amino-2-(2-furyl)[1,2,4]triazolo[1,5-c]pyrimidin-7-yl cis-decahydroisoquinolyl ketone], in series [1], the “Number of animals showing remission” value came out at 8, the “Remission ratio (%)” value amounted to 74% and the Total score worked out at 12. In addition, the “A2A Receptor inhibition rate (%)” value at adenosine A2A receptor (setting [2]) was determined as 71%.
As to `Nc1nc(C(=O)N2CCCCCC2)cc2nc(-c3ccco3)nn12` [Compound 154, 5-Amino-2-(2-furyl)[1,2,4]triazolo[1,5-c]pyrimidin-7-yl perhydroazepinyl ketone], in series [1], the “Number of animals showing remission” value was found to be 7, the “Remission ratio (%)” value is 66% and the Total score came to 16. Besides, the “A2A Receptor inhibition rate (%)” value on adenosine A2A receptor (setting [2]) is 56%.

For the origin of these results see patent publication US20060058320A1, “[1,2,4] Triazolo[1,5-c]pyrimidine derivatives” (KYOWA HAKKO KOGYO CO., LTD., priority 2002, published 2006).
